Biological target: P. falciparum apicoplast DNA polymerase (Pf-apPOL) (Plasmodium falciparum, UniProt Q8ILY1)
Experiment: Fluorescence-based high-throughput DNA polymerase assay (molecular beacon), primary screen and dose-response
Assay type: biochemical
Details: for DNA Pol: 90 min, 10 µM; for % inhibition apPOL 180' 2.5 / % inhibition apPOL 180' 5 / % inhibition apPOL 180' 10 / % inhibition apPOL 180' 20 / % inhibition apPOL 180' 40 / % inhibition apPOL 180' 80: read at 180'
How it was run: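 Single-point screening used 10 µM compound with 20 nM polymerase, 20 nM hairpin substrate and 6 µM dNTPs for 90 min at 25 °C. Confirmatory titrations (2.5–80 µM) followed fluorescence at three times, and IC50 was derived from a fit including a cooperativity term n.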

[1] = 'DNA Pol' of the 186 hits list (primary screen value)

Chain of P. falciparum apicoplast DNA polymerase (Pf-apPOL) (Q8ILY1 entry or part of it): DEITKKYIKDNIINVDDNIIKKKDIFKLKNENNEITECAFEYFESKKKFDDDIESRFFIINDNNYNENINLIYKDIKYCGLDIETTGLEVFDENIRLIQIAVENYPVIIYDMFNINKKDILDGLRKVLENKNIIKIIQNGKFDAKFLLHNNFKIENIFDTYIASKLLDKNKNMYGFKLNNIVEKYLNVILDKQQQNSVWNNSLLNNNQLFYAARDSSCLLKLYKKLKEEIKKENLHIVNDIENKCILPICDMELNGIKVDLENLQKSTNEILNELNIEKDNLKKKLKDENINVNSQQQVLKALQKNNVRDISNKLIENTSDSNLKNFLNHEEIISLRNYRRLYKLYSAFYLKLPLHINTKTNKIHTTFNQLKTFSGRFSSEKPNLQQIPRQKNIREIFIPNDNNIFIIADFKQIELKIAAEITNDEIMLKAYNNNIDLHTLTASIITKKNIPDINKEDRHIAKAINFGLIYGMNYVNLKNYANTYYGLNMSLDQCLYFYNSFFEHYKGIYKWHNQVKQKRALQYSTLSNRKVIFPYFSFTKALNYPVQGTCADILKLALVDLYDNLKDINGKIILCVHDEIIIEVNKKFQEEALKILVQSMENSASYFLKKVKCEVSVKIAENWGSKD

Compound: CC(=O)Nc1cc(C(=O)c2cccs2)nn(-c2ccc(Cl)cc2)c1=O [KU0267905]
- DNA Pol (186 hits, DNA Pol (screen value), unit not given): 68
- DNA Pol ('DNA Pol' (screen value), unit not given): 68
- % inhibition Apo pol 10' 2.5 (DRC-1, read at 10', concentration 2.5): -1.115%
- % inhibition Apo pol 10' 5 (DRC-1, read at 10', concentration 5): 9.678%
- % inhibition Apo pol 10' 10 (DRC-1, read at 10', concentration 10): 23.8402%
- % inhibition Apo pol 10' 20 (DRC-1, read at 10', concentration 20): 30.1491%
- % inhibition Apo pol 10' 40 (DRC-1, read at 10', concentration 40): 60.7427%
- % inhibition Apo pol 10' 80 (DRC-1, read at 10', concentration 80): 68.442%
- % inhibition Apol 90' 2.5 (DRC-1, read at 90', concentration 2.5): -1.383%
- % inhibition Apol 90' 5 (DRC-1, read at 90', concentration 5): -2.969%
- % inhibition Apol 90' 10 (DRC-1, read at 90', concentration 10): 7.904%
- % inhibition Apol 90' 20 (DRC-1, read at 90', concentration 20): 14.4381%
- % inhibition Apol 90' 40 (DRC-1, read at 90', concentration 40): 45.4354%
- % inhibition Apol 90' 80 (DRC-1, read at 90', concentration 80): 70.7976%
- % inhibition apPOL 180' 2.5 (DRC-1, concentration 2.5): -1.959%
- % inhibition apPOL 180' 5 (DRC-1, concentration 5): -7.949%
- % inhibition apPOL 180' 10 (DRC-1, concentration 10): -1.249%
- % inhibition apPOL 180' 20 (DRC-1, concentration 20): 2.642%
- % inhibition apPOL 180' 40 (DRC-1, concentration 40): 28.3479%
- % inhibition apPOL 180' 80 (DRC-1, concentration 80): 62.799%
- % inhibition Apo pol 5' (DRC-2, concentration 2.5): 7%
- % inhibition Apol 40' (DRC-2, concentration 5): 7%
- % inhibition Apol 40' (DRC-2, concentration 80): 52%
- % inhibition ApPOL 90' (DRC-2, concentration 5): 4%
- % inhibition apPOL 180' (DRC-2, concentration 10): 4%
- % inhibition apPOL 180' (DRC-2, concentration 80): 52%
- % inhibition Apo pol 5' 2.5 (DRC-2, read at 5', concentration 2.5): 7%
- % inhibition Apo pol 5' 5 (DRC-2, read at 5', concentration 5): 11%
- % inhibition Apo pol 5' 10 (DRC-2, read at 5', concentration 10): 21%
- % inhibition Apo pol 5' 20 (DRC-2, read at 5', concentration 20): 29%
- % inhibition Apo pol 5' 40 (DRC-2, read at 5', concentration 40): 40%
- % inhibition Apo pol 5' 80 (DRC-2, read at 5', concentration 80): 36%
- % inhibition Apol 40' 2.5 (DRC-2, read at 40', concentration 2.5): 4.64%
- % inhibition Apol 40' 5 (DRC-2, read at 40', concentration 5): 7%
- % inhibition Apol 40' 10 (DRC-2, read at 40', concentration 10): 15%
- % inhibition Apol 40' 20 (DRC-2, read at 40', concentration 20): 25%
- % inhibition Apol 40' 40 (DRC-2, read at 40', concentration 40): 44%
- % inhibition Apol 40' 80 (DRC-2, read at 40', concentration 80): 52%
- % inhibition ApPOL 90' 2.5 (DRC-2, read at 90', concentration 2.5): 3.39%
- % inhibition ApPOL 90' 5 (DRC-2, read at 90', concentration 5): 4%
- % inhibition ApPOL 90' 10 (DRC-2, read at 90', concentration 10): 12%
- % inhibition ApPOL 90' 20 (DRC-2, read at 90', concentration 20): 19%
- % inhibition ApPOL 90' 40 (DRC-2, read at 90', concentration 40): 42%
- % inhibition ApPOL 90' 80 (DRC-2, read at 90', concentration 80): 55%
- % inhibition apPOL 180' 2.5 (DRC-2, concentration 2.5): -1.41%
- % inhibition apPOL 180' 5 (DRC-2, concentration 5): 0.65%
- % inhibition apPOL 180' 10 (DRC-2, concentration 10): 4%
- % inhibition apPOL 180' 20 (DRC-2, concentration 20): 9%
- % inhibition apPOL 180' 40 (DRC-2, concentration 40): 31%
- % inhibition apPOL 180' 80 (DRC-2, concentration 80): 52%

Compound: CC(NC(=O)Cc1cc(=O)[nH]c(SCc2cccc(Cl)c2)n1)c1ccccc1 (stereo not drawn) [Molecule 67, O=C(NC(c1ccccc1)C)Cc1nc(SCc2cccc(c2)Cl)[nH]c(=O)c1]
- DNA Pol [1]: 46
- DNA Pol (DNA Pol (primary screen value)): 46
- % inhibition Apo pol 10' (DRC-1, concentration 2.5): -1.6671%
- % inhibition Apo pol 10' (DRC-1, concentration 5): 0%
- % inhibition Apo pol 10' (DRC-1, concentration 10): 11.4347%
- % inhibition Apo pol 10' (DRC-1, concentration 20): 48.0532%
- % inhibition Apo pol 10' (DRC-1, concentration 40): 64.8608%
- % inhibition Apo pol 10' (DRC-1, concentration 80): 85.5547%
- % inhibition Apol 90' (DRC-1, concentration 2.5): -5.257%
- % inhibition Apol 90' (DRC-1, concentration 5): -6.461%
- % inhibition Apol 90' (DRC-1, concentration 10): 1.923%
- % inhibition Apol 90' (DRC-1, concentration 20): 26.5805%
- % inhibition Apol 90' (DRC-1, concentration 40): 38.5858%
- % inhibition Apol 90' (DRC-1, concentration 80): 80.0323%
- % inhibition apPOL 180' (DRC-1, concentration 2.5): -10.8024%
- % inhibition apPOL 180' (DRC-1, concentration 5): -10.8936%
- % inhibition apPOL 180' (DRC-1, concentration 10): -3.791%
- % inhibition apPOL 180' (DRC-1, concentration 20): 10.3203%
- % inhibition apPOL 180' (DRC-1, concentration 40): 18.891%
- % inhibition apPOL 180' (DRC-1, concentration 80): 71.4283%
- % inhibition Apo pol 5' (DRC-2, concentration 2.5): 0.743%
- % inhibition Apo pol 5' (DRC-2, concentration 5): -0.394%
- % inhibition Apo pol 5' (DRC-2, concentration 10): 30%
- % inhibition Apo pol 5' (DRC-2, concentration 20): 33%
- % inhibition Apo pol 5' (DRC-2, concentration 40): 27%
- % inhibition Apo pol 5' (DRC-2, concentration 80): 20%
- % inhibition Apol 40' (DRC-2, concentration 2.5): 0.551%
- % inhibition Apol 40' (DRC-2, concentration 5): 0.92%
- % inhibition Apol 40' (DRC-2, concentration 10): 36%
- % inhibition Apol 40' (DRC-2, concentration 20): 49%
- % inhibition Apol 40' (DRC-2, concentration 40): 52%
- % inhibition Apol 40' (DRC-2, concentration 80): 55%
- % inhibition ApPOL 90' (DRC-2, concentration 2.5): 0.178%
- % inhibition ApPOL 90' (DRC-2, concentration 5): -1%
- % inhibition ApPOL 90' (DRC-2, concentration 10): 32%
- % inhibition ApPOL 90' (DRC-2, concentration 20): 48%
- % inhibition ApPOL 90' (DRC-2, concentration 40): 54%
- % inhibition ApPOL 90' (DRC-2, concentration 80): 64%
- % inhibition apPOL 180' (DRC-2, concentration 2.5): -3%
- % inhibition apPOL 180' (DRC-2, concentration 5): -6%
- % inhibition apPOL 180' (DRC-2, concentration 10): 20%
- % inhibition apPOL 180' (DRC-2, concentration 20): 37%
- % inhibition apPOL 180' (DRC-2, concentration 40): 49%
- % inhibition apPOL 180' (DRC-2, concentration 80): 70%

Compound: Cc1ccccc1C(=O)N1CCc2c(nc3cc(-c4ccccc4)[nH]n3c2=O)C1 [Molecule 41, Cc1ccccc1C(=O)N1CCc2c(C1)nc1n(c2=O)[nH]c(c1)c1ccccc1]
- DNA Pol [1]: 47
- DNA Pol (DNA Pol (primary screen value)): 47
- % inhibition Apo pol 10' (DRC-1, concentration 2.5): 6.184%
- % inhibition Apo pol 10' (DRC-1, concentration 5): 10.1754%
- % inhibition Apo pol 10' (DRC-1, concentration 10): 45.445%
- % inhibition Apo pol 10' (DRC-1, concentration 20): 74.5975%
- % inhibition Apo pol 10' (DRC-1, concentration 40): 80.8347%
- % inhibition Apo pol 10' (DRC-1, concentration 80): 67.5135%
- % inhibition Apol 90' (DRC-1, concentration 2.5): 1.828%
- % inhibition Apol 90' (DRC-1, concentration 5): 3.445%
- % inhibition Apol 90' (DRC-1, concentration 10): 31.8176%
- % inhibition Apol 90' (DRC-1, concentration 20): 59.5671%
- % inhibition Apol 90' (DRC-1, concentration 40): 74.5448%
- % inhibition Apol 90' (DRC-1, concentration 80): 71.589%
- % inhibition apPOL 180' (DRC-1, concentration 2.5): -1.511%
- % inhibition apPOL 180' (DRC-1, concentration 5): -3.248%
- % inhibition apPOL 180' (DRC-1, concentration 10): 20.9007%
- % inhibition apPOL 180' (DRC-1, concentration 20): 43.9765%
- % inhibition apPOL 180' (DRC-1, concentration 40): 64.8377%
- % inhibition apPOL 180' (DRC-1, concentration 80): 65.5415%
- % inhibition Apo pol 5' (DRC-2, concentration 2.5): 7%
- % inhibition Apo pol 5' (DRC-2, concentration 5): 8%
- % inhibition Apo pol 5' (DRC-2, concentration 10): 20%
- % inhibition Apo pol 5' (DRC-2, concentration 20): 17%
- % inhibition Apo pol 5' (DRC-2, concentration 40): 46%
- % inhibition Apo pol 5' (DRC-2, concentration 80): 29%
- % inhibition Apol 40' (DRC-2, concentration 2.5): 9%
- % inhibition Apol 40' (DRC-2, concentration 5): 5.58%
- % inhibition Apol 40' (DRC-2, concentration 10): 22%
- % inhibition Apol 40' (DRC-2, concentration 20): 18%
- % inhibition Apol 40' (DRC-2, concentration 40): 61%
- % inhibition Apol 40' (DRC-2, concentration 80): 54%
- % inhibition ApPOL 90' (DRC-2, concentration 2.5): 8%
- % inhibition ApPOL 90' (DRC-2, concentration 5): 5%
- % inhibition ApPOL 90' (DRC-2, concentration 10): 21%
- % inhibition ApPOL 90' (DRC-2, concentration 20): 17%
- % inhibition ApPOL 90' (DRC-2, concentration 40): 61%
- % inhibition ApPOL 90' (DRC-2, concentration 80): 59%
- % inhibition apPOL 180' (DRC-2, concentration 2.5): 4.5%
- % inhibition apPOL 180' (DRC-2, concentration 5): 1.21%
- % inhibition apPOL 180' (DRC-2, concentration 10): 16%
- % inhibition apPOL 180' (DRC-2, concentration 20): 9%
- % inhibition apPOL 180' (DRC-2, concentration 40): 55%
- % inhibition apPOL 180' (DRC-2, concentration 80): 58%

Source: publication PMC9090415, “Discovery of small molecule inhibitors of Plasmodium falciparum apicoplast DNA polymerase” (Journal of Enzyme Inhibition and Medicinal Chemistry, 2022)
